Results as given in patent US7163941B2, “Pyrido[2,3-d]pyrimidin-7-carboxylic acid derivatives, their manufacture and use as pharmaceutical agents” (Hoffmann-La Roche Inc., priority 2003, dated 2007).

How the values were obtained:
[1] = biological target: T1, Src (p60^c-src, partially purified) (Homo sapiens, UniProt P12931); experiment: SRC-Inhibitor-Assay (time-resolved fluorescence), Src enzyme; type: biochemical; settings: ATP 5 μM, peptide 10 μM, enzyme 2.5 U/ml, pre-incubation 15 min at 15° C.
T1 construct: purchased Upstate (UBI)
T1 sequence (P12931 whole entry, species assumed): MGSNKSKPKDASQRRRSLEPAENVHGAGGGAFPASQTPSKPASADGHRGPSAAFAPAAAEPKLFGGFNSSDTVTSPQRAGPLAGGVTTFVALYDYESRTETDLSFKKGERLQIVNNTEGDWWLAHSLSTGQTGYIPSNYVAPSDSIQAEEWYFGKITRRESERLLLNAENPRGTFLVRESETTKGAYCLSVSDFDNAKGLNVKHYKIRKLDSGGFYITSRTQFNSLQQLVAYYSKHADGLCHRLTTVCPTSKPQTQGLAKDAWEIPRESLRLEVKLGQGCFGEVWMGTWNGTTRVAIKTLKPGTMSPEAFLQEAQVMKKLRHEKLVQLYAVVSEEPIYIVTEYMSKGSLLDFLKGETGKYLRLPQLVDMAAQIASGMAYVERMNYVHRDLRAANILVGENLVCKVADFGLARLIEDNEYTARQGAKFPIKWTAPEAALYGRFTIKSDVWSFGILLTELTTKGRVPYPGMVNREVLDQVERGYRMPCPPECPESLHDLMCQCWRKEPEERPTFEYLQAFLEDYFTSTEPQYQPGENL

Lck (p56^lck, active) = biological target: T2, Lck (p56^lck, active) (Homo sapiens, UniProt P06239); experiment: SRC-Inhibitor-Assay (time-resolved fluorescence), Lck enzyme; type: biochemical; settings: ATP 5 μM, peptide 10 μM, enzyme 2.5 U/ml, pre-incubation 15 min at 15° C.
T2 construct: purchased Upstate (UBI)
T2 sequence (P06239 whole entry, species assumed): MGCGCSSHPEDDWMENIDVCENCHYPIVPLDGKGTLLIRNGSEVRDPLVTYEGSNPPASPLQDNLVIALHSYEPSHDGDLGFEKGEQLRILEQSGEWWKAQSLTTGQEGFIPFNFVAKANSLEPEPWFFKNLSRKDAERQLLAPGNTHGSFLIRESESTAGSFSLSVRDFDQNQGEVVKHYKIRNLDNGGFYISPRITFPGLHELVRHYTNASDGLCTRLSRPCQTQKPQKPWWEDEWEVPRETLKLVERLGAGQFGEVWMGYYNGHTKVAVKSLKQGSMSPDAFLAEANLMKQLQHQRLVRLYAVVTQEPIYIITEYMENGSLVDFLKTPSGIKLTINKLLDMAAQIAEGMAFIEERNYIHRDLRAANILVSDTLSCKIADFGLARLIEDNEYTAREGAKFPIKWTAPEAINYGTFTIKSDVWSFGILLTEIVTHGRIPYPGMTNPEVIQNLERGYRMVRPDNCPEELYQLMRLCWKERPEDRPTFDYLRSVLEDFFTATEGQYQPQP

IC50 [1]: 200 nM | IC50 (Lck (p56^lck, active)): 357 nM
SMILES: CN(C)CCN(C)C(=O)c1nc2nc(Nc3ccc(F)cc3)ncc2cc1-c1ccccc1Br [Example 3-19, 6-(2-Bromo-phenyl)-2-(4-fluoro-phenylamino)-pyrido[2,3-d]pyrimidine-7-carboxylic acid (2-dimethylamino-ethyl)-methyl-amide]
